Source: PMC2845396 (Clinical cancer research : an official journal of the …, 2009)

Columns and labels:
[1] = test system: DNA methyltransferase (DNMT); assay: DNA methyltransferase enzyme activity in paired tumor biopsies; format: in vivo, human; conditions: one patient with hepatocellular carcinoma; 5-AC 15 mg/m^2/d for 14 days
Epstein Barr Virus (EBV) = assay: EBV viral load in PBMC by real-time PCR; format: in vivo, human; conditions: after 5-AC treatment
DNMT = conditions: plasma concentration reached only with 5-AC 75 mg/m^2/d; cited from earlier work
advanced solid tumor = conditions: 5-AC 20 – 25 mg/m^2 daily for 10 days; cited from earlier work
[2] = Plasma pharmacokinetics of PB and metabolites PA and PG; conditions: PB continuous infusion over 24 hours, 400 mg/kg/d, Overall
[3] = Toxicity in patients, graded by NCI CTC version 2.0; format: in vivo, human
[4] = test system: acetylated histones H3 and H4; assay: Histone H3 or H4 acetylation in PBMC, summary over patients; format: in vivo, human
[5] = human, in vivo, 400 mg/kg/day
[6] = intravenous administration for 5 days, refractory solid tumors; cited from earlier work
G1/G0 growth arrest = conditions: cited from earlier work

Nc1ncn([C@@H]2O[C@H](CO)[C@@H](O)[C@H]2O)c(=O)n1 [5-AC, 5-azacytidine]
inhibition of DNMT activity [1]: 75% and about 75% | patients with reduced viral load (Epstein Barr Virus (EBV)): Three | concentration shown in vitro to cause DNMT inhibition (DNMT): 5 µM | duration of stable disease (advanced solid tumor): 4 – 8 months

O=C(O)Cc1ccccc1 [PA, phenylacetic acid]
Tmax ([2]; mean (range)): 25.30 (23.83–27.98) h | AUC[INF] ([2]; mean ± SD): 26680 ± 11236 µM·h | Cl ([2]; mean ± SD): 9.5 ± 7.6 L/h | Cmax ([2]; plasma, mean ± SD): 1400 ± 504 µM

O=C([O-])CCCc1ccccc1.[Na+] [PB, sodium phenylbutyrate]
confusion, G 3 (CTC grade 3), patients ([3]; human, in vivo): 1 | patients with neuro-cortical toxicity attributable to PB ([3]; of 27 patients, PB 400 mg/kg/day, intermittent or continuous 7 day infusion): 3 | patients with increased acetylation ([4]; PB infused for just 24 hours, Four of 8 patients): 50% | patients with increased acetylation ([4]; dose schedule B, PB infused for 7 days, 3 of 5 patients): 60% | Vd [5]: 14.0 ± 8.0 L | maximum tolerated dose [6]: 410 mg/kg/day | time to G1/G0 growth arrest (G1/G0 growth arrest): ≤ 96 h
